From PMC10394516, “The pharmacokinetic profile of brensocatib and its effect on pharmacodynamic biomarkers including NE, PR3, and CatG in various rodent species” (Frontiers in Pharmacology, 2023)

How the values were obtained:
Format in all cases: in vivo
NSPs (NE, PR3, CatG) = assay: PD recovery study, bone marrow NSP activities (all three NSPs), C57BL/6 mice; details: after 8 days of 5 mg/kg BID
Method: A PD recovery study was performed in female C57BL/6 mice dosed BID for 8 consecutive days. Mice were dosed by oral gavage either with vehicle (0 mg/kg) or 5 mg/kg brensocatib (BID; 10 mg/kg/day). After 8 consecutive days of dosing, the animals were maintained without further treatment until prescribed sacrifice (days: 1, 3, 6, 8, and 10 days post final dose). Plasma was collected from animals during the first 24 h of dosing at −0.5 (half-hour prior to dosing), 1, 8, 9, and 24 h post initial dose. Note that the 8- and 24-h plasma samples were prior to the afternoon dose and prior to the second day dose, respectively. Plasma was used for PK analysis via LC-MS/MS. […]
Bone marrow lysates prepared as described above were diluted and plated onto 96-well assay plates to quantify NSP activities as described previously ([Basso et al., 2022]). […] The specific NSP activity in each sample was calculated as the total activity minus the activity in the presence of a specific NSP inhibitor (if used), including elastase inhibitor (Abcam) for NE, sivelestat (Abcam) for PR3, and cathepsin G inhibitor I (Cayman Chemical; Ann Arbor, MI) for CatG. […] A portion of each cell lysate sample was retained for protein quantification using a Pierce™ BCA Protein Assay Kit (Thermo Fisher). […]

CatG [1] = assay: PD recovery study, bone marrow CatG activity, C57BL/6 mice; details: for Percent change from vehicle CatG: bone marrow
Method: A PD recovery study was performed in female C57BL/6 mice dosed BID for 8 consecutive days. Mice were dosed by oral gavage either with vehicle (0 mg/kg) or 5 mg/kg brensocatib (BID; 10 mg/kg/day). After 8 consecutive days of dosing, the animals were maintained without further treatment until prescribed sacrifice (days: 1, 3, 6, 8, and 10 days post final dose). Plasma was collected from animals during the first 24 h of dosing at −0.5 (half-hour prior to dosing), 1, 8, 9, and 24 h post initial dose. Note that the 8- and 24-h plasma samples were prior to the afternoon dose and prior to the second day dose, respectively. Plasma was used for PK analysis via LC-MS/MS. On prescribed days, animals were sacrificed, and the hind limb bones (femurs and tibias) were collected at necropsy for bone marrow analysis of NSP activities by kinetic enzymatic assays.
(§1) For the mice, each animal had the femurs and tibias of both hind limbs harvested. For the rat, the femur and tibia from a single hind limb per animal was harvested. Bones were kept on wet ice until processing for bone marrow collection. In brief, bone cutters were used to cut the epiphysis (knobby ends) off the long bones to expose the bone marrow filled cavity. Each bone cavity was then flushed with 5 mL/bone (mouse) or 10 mL/bone (rat) of ice-cold RPMI media through a […] and collected in a 50-mL conical tube. Cells were spun down at 2,500 × g at 4°C for 5 min and the supernatant was aspirated. After which, bone marrow cells were lysed with 1X red blood cell (RBC) lysis buffer (Abcam, ab204733) to eliminate contaminating RBCs and washed with PBS to remove any residual RBC lysis buffer. The resulting white blood cells (WBC) were subsequently lysed with 1% (v/v) Triton X-100 in PBS. Lysates were added to 96-well plates and stored at −80°C until NSP analyses.
(§2) Bone marrow lysates prepared as described above were diluted and plated onto 96-well assay plates to quantify NSP activities as described previously ([Basso et al., 2022]). Briefly, peptide substrates for NE (N-Methoxysuccinyl-Ala-Ala-Pro-Val-7-amido-4-methylcoumarin; Sigma; St. Louis, MO; Excitation/Emission at 350/450 nm), PR3 ((7-Methoxycoumarin-4-yl)acetyl-lysyl-(picolinoyl)-Tyr-Asp-Ala-Lys-Gly-Asp-N-3-(2-4-dinitrophenyl)-2-3-diaminopropyonyl-NH2); GenScript; Piscataway, NJ; Excitation/Emission at 340/430 nm), and CatG (N-Succinyl-Ala-Ala-Pro-Phe p nitroanilide; Sigma; Absorbance at 405 nm) were added at a final assay concentration of 100 μM, 40 μM, and 200 μM, respectively, and either fluorescence or absorbance was quantified using a Synergy microplate reader (BioTek; Winooski, VT). The specific NSP activity in each sample was calculated as the total activity minus the activity in the presence of a specific NSP inhibitor (if used), including elastase inhibitor (Abcam) for NE, sivelestat (Abcam) for PR3, and cathepsin G inhibitor I (Cayman Chemical; Ann Arbor, MI) for CatG. NSP concentrations were interpolated based on their activities relative to the standard curves created using active human NE protein (Sigma), active human PR3 protein (Sigma), and active human CatG protein (Sigma), respectively. Due to unavailability of commercial mouse and/or rat NE, PR3, and CatG proteins, the corresponding human proteins were used instead since their catalytic ability is considered to be conserved across species. A portion of each cell lysate sample was retained for protein quantification using a Pierce™ BCA Protein Assay Kit (Thermo Fisher). The NSP activities were normalized for the cell lysate protein concentrations.
The Pierce™ BCA Protein Assay Kit was used to measure the total protein of the samples after lysis to allow for subsequent normalization. The manufacturer’s instructions for use were followed when performing this assay on a portion of the sample lysates which were diluted in PBS, the same diluent as used for preparation of the standard. Plates were read on the Biotek Synergy plate reader with Gen5 software.

CatG [2] = assay: Bone marrow CatG activity after repeated dosing, Sprague Dawley rats; details: for Reduction of CatG activity vs vehicle / Change From Vehicle Control (%) CatG: 9 days
Method: Briefly, animals were weighed and randomized into different treatment groups. In total, three different dosing levels of brensocatib were tested in each species and strain; each QD dosing level was equivalent to 1.5-times the matching daily BID dose. For BID dosing, the second daily dose was administered 8-h post the morning dose. C57BL/6 mice were dosed either BID or QD for 7 consecutive days at 0/0, 0.5/0.75, 2/3, and 20/30 mg/kg/day (BID/QD). BALB/c mice were dosed for 7 consecutive days at 0/0, 0.2/0.3, 2/3, and 20/30 mg/kg/day (BID/QD). SD rats were dosed for 9 consecutive days at 0/0, 0.2/0.3, 2/3, and 20/30 mg/kg/day (BID/QD). Wistar rats were dosed for 7 consecutive days at 0/0, 0.2/0.3, 2/3, and 20/30 mg/kg/day (BID/QD).
At the completion of the study, animals were sacrificed 16–24 h post their final dose. The hind limb bones (femurs and tibias) were collected at necropsy for bone marrow analysis of NSP activities by kinetic enzymatic assays ([Basso et al., 2022]). See section Quantification of Bone Marrow NSP Activities for details.
as §1, §2
The Pierce™ BCA Protein Assay Kit was used to measure the total protein of the samples after lysis to allow for subsequent normalization. […]

[3] = after 8 days of 5 mg/kg BID, curve fit with free min and max

Compound: Cn1c(=O)oc2ccc(-c3ccc(C[C@@H](C#N)NC(=O)[C@@H]4CNCCCO4)cc3)cc21 [brensocatib]
- Time to full recovery of NSP activity (visually) (NSPs (NE, PR3, CatG)): 6–8 days post final dose
- Recovery: Time to reach 50% recovery, CatG (CatG [1]; [3]): 3.3 days
- Recovery: Time to reach 90% recovery, CatG (CatG [1]; [3]): 5.2 days
- Recovery: Time to reach 95% recovery, CatG (CatG [1]; [3]): 5.5 days
- Recovery: Time to reach 100% recovery, CatG (CatG [1]; [3]): 5.8 days
- Percent change from vehicle CatG (CatG [1]; 1 day recovery after 8 days of 5 mg/kg BID): −93% (p < 0.0001)
- Percent change from vehicle CatG (CatG [1]; 3 days recovery after 8 days of 5 mg/kg BID): −60% (p < 0.0001)
- Percent change from vehicle CatG (CatG [1]; 6 days recovery after 8 days of 5 mg/kg BID): −14% (p = 0.2431)
- Percent change from vehicle CatG (CatG [1]; 8 days recovery after 8 days of 5 mg/kg BID): +26% (p = 0.0133)
- Percent change from vehicle CatG (CatG [1]; 10 days recovery after 8 days of 5 mg/kg BID): +38% (p < 0.0001)
- Reduction of CatG activity vs vehicle (CatG [2]; BID highest dose (20 mg/kg/day)): 37%
- Reduction of CatG activity vs vehicle (CatG [2]; QD highest dose (30 mg/kg/day)): 43%
- Combined BID and QD percent reduction, CatG (CatG [2]; highest dose level 20/30 (BID/QD) mg/kg/day): 40%
- Change From Vehicle Control (%) CatG (CatG [2]; oral BID 0.2 mg/kg/day): +4% (p = 0.9857)
- Change From Vehicle Control (%) CatG (CatG [2]; oral BID 2 mg/kg/day): +2% (p = 0.9972)
- Change From Vehicle Control (%) CatG (CatG [2]; oral BID 20 mg/kg/day): −37% (p = 0.0420)
- Change From Vehicle Control (%) CatG (CatG [2]; oral QD 0.3 mg/kg/day): −9% (p = 0.9235)
- Change From Vehicle Control (%) CatG (CatG [2]; oral QD 3 mg/kg/day): −13% (p = 0.8203)
- Change From Vehicle Control (%) CatG (CatG [2]; oral QD 30 mg/kg/day): −43% (p = 0.0348)
